For the assay, the system named is M. mycetomatis genome strain MM55. The assay is described as follows: CLSI M38-A2 based in vitro susceptibility screening (XTT or resazurin), growth at fixed concentration. Format: cell-based, Madurella mycetomatis. The settings on record: Madurella mycetomatis; for Percent fungal survival at 100 µM: read-out: Percentage survival at 100um, 100 uM A (second replicate column). (In general: Formazan colour is commonly taken as a measure of viable cells.)

The mark [1] stands for this setting: mean of three, M. mycetomatis MM55, read-out: Percentage survival at 25um, 25 uM mean.
[2] abbreviates: replicate A, M. mycetomatis MM55, read-out: Percentage survival at 25um, 25 um A.
[3] abbreviates: replicate B, M. mycetomatis MM55, read-out: Percentage survival at 25um, 25 uM B.
Setting [4] is: replicate C, M. mycetomatis MM55, read-out: Percentage survival at 25um, 25 uM C.
Where [5] appears, read: mean of three, M. mycetomatis MM55, read-out: Percentage survival at 100um, 100 uM mean.
Setting [6] is: replicate 1, M. mycetomatis MM55, read-out: Percentage survival at 100um, 100 uM A (first replicate column).
[7] abbreviates: replicate 2, M. mycetomatis MM55.
[8] abbreviates: replicate 3, M. mycetomatis MM55, read-out: Percentage survival at 100um, 100 uM A (third replicate column).
Where [9] appears, read: mean of replicates, read-out: Percentage survival at 25um, 25 uM mean.
Setting [10] is: replicate A, read-out: Percentage survival at 25um, 25 um A.
Where [11] appears, read: replicate B, read-out: Percentage survival at 25um, 25 uM B.
Setting [12] is: replicate C, read-out: Percentage survival at 25um, 25 uM C.
[13] abbreviates: mean of replicates, read-out: Percentage survival at 100um, 100 uM mean.
Setting [14] is: mean of three replicates, read-out: Percentage survival at 25um, 25 uM mean.
Where [15] appears, read: mean of three replicates, read-out: Percentage survival at 100um, 100 uM mean.
Setting [16] is: replicate 1, read-out: Percentage survival at 100um, 100 uM A (first replicate column).
Setting [17] is: replicate 3, read-out: Percentage survival at 100um, 100 uM A (third replicate column).
Where [18] appears, read: mean, read-out: Percentage survival at 25um, 25 uM mean.
Where [19] appears, read: mean, read-out: Percentage survival at 100um, 100 uM mean.
Where [20] appears, read: replicate (first column), read-out: Percentage survival at 100um, 100 uM A.
[21] abbreviates: replicate (second column), read-out: Percentage survival at 100um, 100 uM A.
[22] abbreviates: replicate (third column), read-out: Percentage survival at 100um, 100 uM A.
Setting [23] is: first replicate column, read-out: Percentage survival at 100um, 100 uM A.
Where [24] appears, read: second replicate column, read-out: Percentage survival at 100um, 100 uM A.
[25] abbreviates: third replicate column, read-out: Percentage survival at 100um, 100 uM A.

These results are taken from paper PMC8815882, “Screening the pandemic response box identified benzimidazole carbamates, Olorofim and ravuconazole as promising drug candidates for the treatment of eumycetoma” (PLoS Neglected Tropical Diseases, 2022).

Like-named read-outs stand apart in the source and are kept apart here.

In the case of `Cc1onc(-c2ccccc2Cl)c1C(=O)N[C@@H]1C(=O)N2[C@@H]1SC(C)(C)[C@@H]2C(=O)O` [MMV002740], the activity at 25 µM is, setting by setting: under setting [1], 65.2%; under setting [2], 60.8%; under setting [3], 53.9%; under setting [4], 80.9%. The activity at 100 µM was 92.7% under setting [5], 88.1% under setting [6] and 112% under setting [8]. Besides, the Percent fungal survival at 100 µM under setting [7] turned out to be 77.7%.
For `C[N+]1(C)CCCC(OC(=O)C(O)(c2ccccc2)c2ccccc2)C1` (centres unmarked) [MMV002676], the activity at 25 µM is, setting by setting: under setting [9], 79.3%; under setting [10], 73.4%; under setting [11], 85.9%; under setting [12], 78.5%. Moreover, the activity at 100 µM reads like this: under setting [13], 79.9%; (replicate 1, read-out: Percentage survival at 100um, 100 uM A) 85.5%; (replicate 2, read-out: Percentage survival at 100um, 100 uM A) 72.6%; (replicate 3, read-out: Percentage survival at 100um, 100 uM A) 81.5%.
For the compound `O=C(NN1C(=O)[C@@H]2C3C=CC([C@H]4C[C@@H]34)[C@@H]2C1=O)c1ccc(C(F)(F)F)cc1` [MMV1782114], the activity at 25 µM by setting is: under setting [14], 90.1%; under setting [10], 95.2%; under setting [11], 94.5%; under setting [12], 80.6%. For the same compound, the activity at 100 µM reads like this: under setting [15], 84.5%; under setting [16], 90%; under setting [17], 85%. In addition, where the note is “replicate 2”, the Percent fungal survival at 100 µM came to 78.4%.
`Clc1cc2nc(C3CCNCC3)n(Cc3ccc(CNCCc4cnc[nH]4)cc3)c2cc1Cl` [MMV1580842]: the activity at 25 µM is, setting by setting: under setting [1], 86.1%; under setting [2], 92.3%; under setting [3], 94.9%; under setting [4], 71.1%. Further, the activity at 100 µM stood at 66.3% under setting [5], 60.7% under setting [6] and 64.1% under setting [8]. Moreover, the Percent fungal survival at 100 µM under setting [7] turned out to be 74.3%.
On to `CCOc1ccc(/C=N/NC(=O)C2CC2c2ccc(C(C)(C)C)cc2)cc1OCC` (centres unmarked) [MMV1634398], for which the activity at 25 µM runs as follows: under setting [9], 85.9%; under setting [10], 88.3%; under setting [11], 97.5%; under setting [12], 72%. The activity at 100 µM by setting is: under setting [13], 81.1%; under setting [16], 88.5%; under setting [17], 67.1%. Besides, for the setting “replicate 2”, the Percent fungal survival at 100 µM came to 87.7%.
Regarding `CC(C)(C)c1cc(CCC(=O)N2CCC2)cc(C(C)(C)C)c1O` [MMV1229204], the activity at 25 µM is, setting by setting: under setting [1], 77.7%; under setting [2], 91.6%; under setting [3], 84.3%; under setting [4], 57%. Moreover, the activity at 100 µM stood at 62.1% under setting [5], 57.1% under setting [6] and 65.1% under setting [8]. The Percent fungal survival at 100 µM under setting [7] came out at 64%.
With `O=C(Nc1ccccc1)N(Cc1cc(Br)ccc1O)c1ccc(F)cc1` [MMV1581552], the activity at 25 µM under setting [1] came out at 51.3%, the activity at 25 µM under setting [2] was 32.5%, the activity at 25 µM under setting [3] is 58.2% and the activity at 25 µM under setting [4] was determined as 63.3%. Also, the activity at 100 µM reads like this: under setting [5], 11.5%; under setting [6], 1.56%; under setting [8], 24.3%. Moreover, under setting [7], the Percent fungal survival at 100 µM is 8.53%.
With `O=C(N[C@H](Cc1cccc2ccccc12)C(=O)NCCc1c[nH]cn1)C1Cc2ccccc2C1` [MMV1782109], the activity at 25 µM is 80.7% under setting [18], 88.1% under setting [10], 81.3% under setting [11] and 72.6% under setting [12]. In addition, the activity at 100 µM reads like this: under setting [19], 67%; under setting [20], 69.9%; under setting [21], 67.6%; under setting [22], 63.4%.
As for `CCCCCCCc1[nH]c2ccccc2c(=O)c1O` [MMV1578561], the activity at 25 µM was 76.2% under setting [1], 76.9% under setting [2], 79.7% under setting [3] and 71.9% under setting [4]. Also, the activity at 100 µM by setting is: under setting [5], 72.1%; under setting [6], 73.7%; under setting [8], 73.2%. The Percent fungal survival at 100 µM under setting [7] turned out to be 69.3%.
As for `O=C(NC(=O)N1CCCc2ccccc21)c1cccc(Cl)c1` [MMV1782351], the activity at 25 µM by setting is: under setting [18], 92%; under setting [10], 96.8%; under setting [11], 101%; under setting [12], 78.3%. Also, the activity at 100 µM by setting is: under setting [19], 75.7%; under setting [20], 73.9%; under setting [21], 74.5%; under setting [22], 78.6%.
With `O=C(/C=C/n1cnc(-c2cc(C(F)(F)F)cc(C(F)(F)F)c2)n1)NNc1cnccn1` [MMV1593517], the activity at 25 µM came to 90.4% under setting [14], 63% under setting [10], 118% under setting [11] and 90.3% under setting [12]. The activity at 100 µM stood at 102% under setting [23], 102% under setting [15], 111% under setting [24] and 95% under setting [25].
Turning to `OCCC#Cc1nc(-c2ccc(F)cc2)c(-c2ccncc2)n1CCCc1ccccc1` [MMV1580797], the activity at 25 µM runs as follows: under setting [14], 67.7%; under setting [10], 62%; under setting [11], 74.7%; under setting [12], 66.4%. The activity at 100 µM under setting [23] was 53.2%, the activity at 100 µM under setting [15] amounted to 57.6%, the activity at 100 µM under setting [24] was found to be 58.3% and the activity at 100 µM under setting [25] is 61.4%.
With `CS(=O)(=O)c1ccc(Oc2ccc(Cl)cc2)cc1` [MMV1634404], the activity at 25 µM amounted to 85.3% under setting [14], 90% under setting [10], 98% under setting [11] and 68% under setting [12]. Moreover, the activity at 100 µM reads like this: under setting [15], 50.7%; under setting [16], 44.2%; under setting [17], 59%. Where the note is “replicate 2”, the Percent fungal survival at 100 µM amounted to 49%.
As for `NCc1ccc(S(N)(=O)=O)cc1` [MMV002665], the activity at 25 µM by setting is: under setting [14], 85.4%; under setting [10], 82.7%; under setting [11], 87.5%; under setting [12], 86.1%. In addition, the activity at 100 µM is, setting by setting: under setting [15], 90.8%; under setting [16], 98.4%; under setting [17], 95.8%. Under “replicate 2”, the Percent fungal survival at 100 µM stood at 78.3%.
For `COc1ccc2c(c1)cc(CNC(=O)c1cc3ccccc3o1)n2CC(=O)O` [MMV1581553], the activity at 25 µM under setting [18] was found to be 76.7%, the activity at 25 µM under setting [10] is 87.4%, the activity at 25 µM under setting [11] is 70.5% and the activity at 25 µM under setting [12] was found to be 72.3%. Also, the activity at 100 µM worked out at 88.6% under setting [19], 90% under setting [20], 85% under setting [21] and 90.9% under setting [22].
Consider `CC1=C(/C=C/C(C)=C/C=C/C(C)=C/C(=O)Nc2ccc(O)cc2)C(C)(C)CCC1` [MMV001793], for which the activity at 25 µM under setting [14] is 68.1%, the activity at 25 µM under setting [10] was determined as 69.1%, the activity at 25 µM under setting [11] is 68.9% and the activity at 25 µM under setting [12] stood at 66.2%. Also, the activity at 100 µM worked out at 62% under setting [15], 59% under setting [16] and 68.7% under setting [17]. Also, the Percent fungal survival at 100 µM (replicate 2) stood at 58.3%.
